What was measured:
Assay in all cases: cells
COLO-824 = assay type: functional, cell-based, Homo sapiens; conditions: Homo sapiens, COLO-824
Description: SANGER: Inhibition of human COLO-824 cell growth in a cell viability assay.

COR-L88 = assay type: functional, cell-based, Homo sapiens; conditions: Homo sapiens, COR-L88;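 further: growth inhibition of COR-L88 cells, read out with a cell viability assay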
Description: SANGER: Inhibition of human COR-L88 cell growth in a cell viability assay.

CTB-1 = assay type: functional, cell-based, Homo sapiens; conditions: Homo sapiens, CTB-1
Description: SANGER: Inhibition of human CTB-1 cell growth in a cell viability assay.

D-392MG = assay type: functional, cell-based, Homo sapiens; conditions: Homo sapiens, D-392MG
DMS-114 = assay type: functional, cell-based, Homo sapiens; conditions: Homo sapiens, DMS-114
EW-11 = assay type: functional, cell-based, Homo sapiens; conditions: Homo sapiens, EW-11;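 further: growth inhibition of human EW-11 cells, measured with a cell viability assay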
Description: SANGER: Inhibition of human EW-11 cell growth in a cell viability assay.

HCC2157 = assay type: functional, cell-based, Homo sapiens; conditions: Homo sapiens, HCC2157;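 further: growth inhibition of the cancer cell line, read out as cell viability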
Description: SANGER: Inhibition of human HCC2157 cell growth in a cell viability assay.

HOP-62 = assay type: functional, cell-based, Homo sapiens; conditions: Homo sapiens, HOP-62;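 further: cell growth inhibition determined with a viability assay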
Description: SANGER: Inhibition of human HOP-62 cell growth in a cell viability assay.

IST-MES1 = assay type: functional, cell-based, Homo sapiens; conditions: Homo sapiens, IST-MES1;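 further: growth inhibition of IST-MES1 cells, measured with a cell viability assay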
Description: SANGER: Inhibition of human IST-MES1 cell growth in a cell viability assay.

KARPAS-299 = assay type: functional, cell-based, Homo sapiens; conditions: Homo sapiens, KARPAS-299
Description: SANGER: Inhibition of human KARPAS-299 cell growth in a cell viability assay.

KARPAS-45 = assay type: functional, cell-based, Homo sapiens; conditions: Homo sapiens, KARPAS-45;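 further: inhibition of cell line growth, read out through a viability assay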
Description: SANGER: Inhibition of human KARPAS-45 cell growth in a cell viability assay.

LAMA-84 = assay type: functional, cell-based, Homo sapiens; conditions: Homo sapiens, LAMA-84;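 further: growth inhibition of LAMA-84 cells, read out with a cell viability assay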
Description: SANGER: Inhibition of human LAMA-84 cell growth in a cell viability assay.

MEG-01 = assay type: functional, cell-based, Homo sapiens; conditions: Homo sapiens, MEG-01;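 further: growth inhibition of MEG-01 cells, read out by a cell viability assay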
Description: SANGER: Inhibition of human MEG-01 cell growth in a cell viability assay.

MFH-ino = assay type: functional, cell-based, Homo sapiens; conditions: Homo sapiens, MFH-ino;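 further: growth inhibition of human MFH-ino cells, read out by a cell viability assay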
Description: SANGER: Inhibition of human MFH-ino cell growth in a cell viability assay.

MHH-NB-11 = assay type: functional, cell-based, Homo sapiens; conditions: Homo sapiens, MHH-NB-11;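 further: growth inhibition of human MHH-NB-11 cells, read out by a cell viability assay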
Description: SANGER: Inhibition of human MHH-NB-11 cell growth in a cell viability assay.

MN-60 = assay type: functional, cell-based, Homo sapiens; conditions: Homo sapiens, MN-60;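 further: growth inhibition of the MN-60 cell line, determined with a cell viability assay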
Description: SANGER: Inhibition of human MN-60 cell growth in a cell viability assay.

MPP-89 = assay type: functional, cell-based, Homo sapiens; conditions: Homo sapiens, MPP-89;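 further: growth inhibition of human MPP-89 cells, read out with a cell viability assay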
Description: SANGER: Inhibition of human MPP-89 cell growth in a cell viability assay.

MSTO-211H = assay type: functional, cell-based, Homo sapiens; conditions: Homo sapiens, MSTO-211H
Description: SANGER: Inhibition of human MSTO-211H cell growth in a cell viability assay.

MZ1-PC = assay type: functional, cell-based, Homo sapiens; conditions: Homo sapiens, MZ1-PC;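 further: cell viability assay measuring growth inhibition of human MZ1-PC cells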
Description: SANGER: Inhibition of human MZ1-PC cell growth in a cell viability assay.

NCI-H1355 = assay type: functional, cell-based, Homo sapiens; conditions: Homo sapiens, NCI-H1355;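 further: growth inhibition of human NCI-H1355 cells, read out by a cell viability assay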
Description: SANGER: Inhibition of human NCI-H1355 cell growth in a cell viability assay.

NCI-H1395 = assay type: functional, cell-based, Homo sapiens; conditions: Homo sapiens, NCI-H1395;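 further: cell viability assay read-out quantifying reduced proliferation of human NCI-H1395 cells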
Description: SANGER: Inhibition of human NCI-H1395 cell growth in a cell viability assay.

NCI-H2126 = assay type: functional, cell-based, Homo sapiens; conditions: Homo sapiens, NCI-H2126;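 further: growth inhibition of the cancer cell line, determined with a cell viability readout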
Description: SANGER: Inhibition of human NCI-H2126 cell growth in a cell viability assay.

NCI-H747 = assay type: functional, cell-based, Homo sapiens; conditions: Homo sapiens, NCI-H747;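 further: growth inhibition of human NCI-H747 cells, read out by a cell viability assay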
Description: SANGER: Inhibition of human NCI-H747 cell growth in a cell viability assay.

NCI-N87 = assay type: functional, cell-based, Homo sapiens; conditions: Homo sapiens, NCI-N87;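 further: growth inhibition of human NCI-N87 cells, read out with a cell viability assay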
Description: SANGER: Inhibition of human NCI-N87 cell growth in a cell viability assay.

NH-12 = assay type: functional, cell-based, Homo sapiens; conditions: Homo sapiens, NH-12;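 further: growth inhibition of NH-12 cells, read out with a cell viability assay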
Description: SANGER: Inhibition of human NH-12 cell growth in a cell viability assay.

NOMO-1 = assay type: functional, cell-based, Homo sapiens; conditions: Homo sapiens, NOMO-1;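 further: growth inhibition of human NOMO-1 cells measured by a cell viability assay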
Description: SANGER: Inhibition of human NOMO-1 cell growth in a cell viability assay.

OS-RC-2 = assay type: functional, cell-based, Homo sapiens; conditions: Homo sapiens, OS-RC-2;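 further: growth inhibition of human OS-RC-2 cells, measured by a cell viability assay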
Description: SANGER: Inhibition of human OS-RC-2 cell growth in a cell viability assay.

P30-OHK = assay type: functional, cell-based, Homo sapiens; conditions: Homo sapiens, P30-OHK;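 further: growth inhibition of the P30-OHK cell line, read out with a cell viability assay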
Description: SANGER: Inhibition of human P30-OHK cell growth in a cell viability assay.

QIMR-WIL = assay type: functional, cell-based, Homo sapiens; conditions: Homo sapiens, QIMR-WIL;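 further: growth inhibition of QIMR-WIL cells, read out with a cell viability assay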
Description: SANGER: Inhibition of human QIMR-WIL cell growth in a cell viability assay.

RS4-11 = assay type: functional, cell-based, Homo sapiens; conditions: Homo sapiens, RS4-11;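 further: growth inhibition of RS4-11 cells, read out by a cell viability assay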
Description: SANGER: Inhibition of human RS4-11 cell growth in a cell viability assay.

SBC-1 = assay type: functional, cell-based, Homo sapiens; conditions: Homo sapiens, SBC-1;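 further: cell viability assay measuring growth inhibition of the SBC-1 cell line, IC50 being the concentration that halves growth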
Description: SANGER: Inhibition of human SBC-1 cell growth in a cell viability assay.

SK-MEL-1 = assay type: functional, cell-based, Homo sapiens; conditions: Homo sapiens, SK-MEL-1;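 further: growth inhibition of human SK-MEL-1 cells, read out by a cell viability assay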
Description: SANGER: Inhibition of human SK-MEL-1 cell growth in a cell viability assay.

SK-N-FI = assay type: functional, cell-based, Homo sapiens; conditions: Homo sapiens, SK-N-FI;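 further: cell viability assay measuring growth inhibition of human SK-N-FI cells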
Description: SANGER: Inhibition of human SK-N-FI cell growth in a cell viability assay.

SK-PN-DW = assay type: functional, cell-based, Homo sapiens; conditions: Homo sapiens, SK-PN-DW;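 further: growth inhibition measured with a viability assay on these cells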
Description: SANGER: Inhibition of human SK-PN-DW cell growth in a cell viability assay.

8-MG-BA = assay type: functional, cell-based, Homo sapiens; conditions: Homo sapiens, 8-MG-BA;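 further: growth inhibition of 8-MG-BA cells, read out with a cell viability assay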
Description: SANGER: Inhibition of human 8-MG-BA cell growth in a cell viability assay.

A704 = assay type: functional, cell-based, Homo sapiens; conditions: Homo sapiens, A704;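 further: growth inhibition of human A704 cells, read out with a cell viability assay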
Description: SANGER: Inhibition of human A704 cell growth in a cell viability assay.

BB49-HNC = assay type: functional, cell-based, Homo sapiens; conditions: Homo sapiens, BB49-HNC;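 further: cell viability assay read-out, reported as inhibition of BB49-HNC cell growth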
Description: SANGER: Inhibition of human BB49-HNC cell growth in a cell viability assay.

BB65-RCC = assay type: functional, cell-based, Homo sapiens; conditions: Homo sapiens, BB65-RCC;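 further: growth inhibition of the cell line, measured with a cell viability assay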
Description: SANGER: Inhibition of human BB65-RCC cell growth in a cell viability assay.

BE-13 = assay type: functional, cell-based, Homo sapiens; conditions: Homo sapiens, BE-13;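 further: growth inhibition of human BE-13 cells, measured with a cell viability assay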
Description: SANGER: Inhibition of human BE-13 cell growth in a cell viability assay.

BT-474 = assay type: functional, cell-based, Homo sapiens; conditions: Homo sapiens, BT-474
Description: SANGER: Inhibition of human BT-474 cell growth in a cell viability assay.

C2BBe1 = assay type: functional, cell-based, Homo sapiens; conditions: Homo sapiens, C2BBe1;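 further: growth inhibition of C2BBe1 cells, read out through a viability assay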
Description: SANGER: Inhibition of human C2BBe1 cell growth in a cell viability assay.

TE-12 = assay type: functional, cell-based, Homo sapiens; conditions: Homo sapiens, TE-12;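 further: growth inhibition of TE-12 cells, read out by a cell viability assay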
Description: SANGER: Inhibition of human TE-12 cell growth in a cell viability assay.

TE-5 = assay type: functional, cell-based, Homo sapiens; conditions: Homo sapiens, TE-5;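 further: inhibition of cell growth, read out by a cell viability assay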
Description: SANGER: Inhibition of human TE-5 cell growth in a cell viability assay.

U-87 MG = assay type: functional, cell-based, Homo sapiens, U-87MG ATCC; conditions: Homo sapiens, U-87 MG;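 further: growth inhibition of the cells measured with a viability assay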
Description: SANGER: Inhibition of human U-87-MG cell growth in a cell viability assay.

VA-ES-BJ = assay type: functional, cell-based, Homo sapiens; conditions: Homo sapiens, VA-ES-BJ;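 further: growth inhibition of the VA-ES-BJ cell line, read out by a cell viability assay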
Description: SANGER: Inhibition of human VA-ES-BJ cell growth in a cell viability assay.

no-10 = assay type: functional, cell-based, Homo sapiens; conditions: Homo sapiens;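 further: growth inhibition of no-10 cells, read out with a cell viability assay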
Description: SANGER: Inhibition of human no-10 cell growth in a cell viability assay.

EW-24 = assay type: functional, cell-based, Homo sapiens; conditions: Homo sapiens, EW-24;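 further: human EW-24 cancer cell line, growth inhibition read out via a cell viability assay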
Description: SANGER: Inhibition of human EW-24 cell growth in a cell viability assay.

KMOE-2 = assay type: functional, cell-based, Homo sapiens; conditions: Homo sapiens, KMOE-2;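 further: growth inhibition of human KMOE-2 cells, read out with a cell viability assay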
Description: SANGER: Inhibition of human KMOE-2 cell growth in a cell viability assay.

CC(C)CCN1c2nc(Nc3cc(F)c(O)c(F)c3)ncc2N(C)C(=O)C1C (stereo not given)
IC50 (COLO-824): 4.9 µM
IC50 (COR-L88): > 5 µM
IC50 (CTB-1): 1.45 µM
IC50 (D-392MG): > 5 µM
IC50 (DMS-114): 4.81 µM
IC50 (EW-11): 3.41 µM
IC50 (HCC2157): > 5 µM
IC50 (HOP-62): 4.31 µM
IC50 (IST-MES1): > 5 µM
IC50 (KARPAS-299): > 5 µM
IC50 (KARPAS-45): 0.165 µM
IC50 (LAMA-84): 1.13 µM
IC50 (MEG-01): > 5 µM
IC50 (MFH-ino): > 5 µM
IC50 (MHH-NB-11): > 5 µM
IC50 (MN-60): 2.45 µM
IC50 (MPP-89): > 5 µM
IC50 (MSTO-211H): > 5 µM
IC50 (MZ1-PC): 3.83 µM
IC50 (NCI-H1355): > 5 µM
IC50 (NCI-H1395): 2.47 µM
IC50 (NCI-H2126): > 5 µM
IC50 (NCI-H747): > 5 µM
IC50 (NCI-N87): > 5 µM
IC50 (NH-12): 3.11 µM
IC50 (NOMO-1): > 5 µM
IC50 (OS-RC-2): > 5 µM
IC50 (P30-OHK): > 5 µM
IC50 (QIMR-WIL): 2.08 µM
IC50 (RS4-11): > 5 µM
IC50 (SBC-1): 0.695 µM
IC50 (SK-MEL-1): > 5 µM
IC50 (SK-N-FI): > 5 µM
IC50 (SK-PN-DW): > 5 µM
IC50 (8-MG-BA): 2.23 µM
IC50 (A704): > 5 µM
IC50 (BB49-HNC): > 5 µM
IC50 (BB65-RCC): 3.45 µM
IC50 (BE-13): 1.59 µM
IC50 (BT-474): > 5 µM
IC50 (C2BBe1): > 5 µM
IC50 (TE-12): > 5 µM
IC50 (TE-5): > 5 µM
IC50 (U-87 MG): > 5 µM
IC50 (VA-ES-BJ): > 5 µM
IC50 (no-10): > 5 µM

C=C(c1ccc(C(=O)O)cc1)c1cc2c(cc1C)C(C)(C)CCC2(C)C [BEXAROTENE]
IC50 (COLO-824): > 8 µM
IC50 (COR-L88): > 8 µM
IC50 (CTB-1): > 8 µM
IC50 (D-392MG): > 8 µM
IC50 (DMS-114): > 8 µM
IC50 (EW-11): > 8 µM
IC50 (EW-24): > 8 µM
IC50 (HCC2157): > 8 µM
IC50 (HOP-62): > 8 µM
IC50 (IST-MES1): > 8 µM
IC50 (KARPAS-299): > 8 µM
IC50 (KMOE-2): > 8 µM
IC50 (LAMA-84): > 8 µM
IC50 (MEG-01): > 8 µM
IC50 (MFH-ino): 7.21 µM
IC50 (MHH-NB-11): > 8 µM
IC50 (MN-60): > 8 µM
IC50 (MPP-89): > 8 µM
IC50 (MSTO-211H): > 8 µM
IC50 (MZ1-PC): > 8 µM
IC50 (NCI-H1355): > 8 µM
IC50 (NCI-H1395): > 8 µM
IC50 (NCI-H2126): > 8 µM
IC50 (NCI-H747): > 8 µM
IC50 (NCI-N87): > 8 µM
IC50 (NH-12): > 8 µM
IC50 (NOMO-1): > 8 µM
IC50 (OS-RC-2): > 8 µM
IC50 (P30-OHK): > 8 µM
IC50 (QIMR-WIL): > 8 µM
IC50 (RS4-11): > 8 µM
IC50 (SBC-1): > 8 µM
IC50 (SK-MEL-1): > 8 µM
IC50 (SK-N-FI): > 8 µM
IC50 (SK-PN-DW): > 8 µM
IC50 (8-MG-BA): > 8 µM
IC50 (A704): > 8 µM
IC50 (BB49-HNC): > 8 µM
IC50 (BB65-RCC): > 8 µM
IC50 (BE-13): > 8 µM
IC50 (BT-474): > 8 µM
IC50 (C2BBe1): > 8 µM
IC50 (TE-12): > 8 µM
IC50 (TE-5): > 8 µM
IC50 (U-87 MG): > 8 µM
IC50 (VA-ES-BJ): > 8 µM
IC50 (no-10): > 8 µM

COc1cc2ncn(-c3cc(OCc4ccccc4S(C)(=O)=O)c(C#N)s3)c2cc1OC [GSK-319347A]
IC50 (COLO-824): > 5 µM
IC50 (COR-L88): > 5 µM
IC50 (CTB-1): > 5 µM
IC50 (D-392MG): > 5 µM
IC50 (DMS-114): > 5 µM
IC50 (EW-11): > 5 µM
IC50 (EW-24): > 5 µM
IC50 (HCC2157): > 5 µM
IC50 (HOP-62): > 5 µM
IC50 (IST-MES1): > 5 µM
IC50 (KARPAS-299): > 5 µM
IC50 (KARPAS-45): > 5 µM
IC50 (KMOE-2): > 5 µM
IC50 (LAMA-84): > 5 µM
IC50 (MEG-01): > 5 µM
IC50 (MFH-ino): > 5 µM
IC50 (MHH-NB-11): > 5 µM
IC50 (MN-60): > 5 µM
IC50 (MPP-89): > 5 µM
IC50 (MSTO-211H): > 5 µM
IC50 (MZ1-PC): > 5 µM
IC50 (NCI-H1355): > 5 µM
IC50 (NCI-H1395): > 5 µM
IC50 (NCI-H2126): > 5 µM
IC50 (NCI-H747): > 5 µM
IC50 (NCI-N87): > 5 µM
IC50 (NH-12): > 5 µM
IC50 (NOMO-1): > 5 µM
IC50 (OS-RC-2): > 5 µM
IC50 (P30-OHK): > 5 µM
IC50 (QIMR-WIL): > 5 µM
IC50 (RS4-11): > 5 µM
IC50 (SBC-1): > 5 µM
IC50 (SK-MEL-1): > 5 µM
IC50 (SK-N-FI): > 5 µM
IC50 (SK-PN-DW): > 5 µM
IC50 (8-MG-BA): > 5 µM
IC50 (BB49-HNC): > 5 µM
IC50 (BB65-RCC): > 5 µM
IC50 (BE-13): > 5 µM
IC50 (BT-474): > 5 µM
IC50 (C2BBe1): > 5 µM
IC50 (TE-12): > 5 µM
IC50 (TE-5): > 5 µM
IC50 (U-87 MG): > 5 µM
IC50 (VA-ES-BJ): > 5 µM
IC50 (no-10): > 5 µM
